Experimental data from ChEMBL document CHEMBL1121784, “Quantitative structure-activity relationships by distance geometry: thyroxine binding site” (J Med Chem, 1981).

Target: Transthyretin (Homo sapiens) (UniProt P02766)
Test: Binding affinity against prealbumin

| Compound | Delta G [kcal/M] |
| --- | --- |
| CCc1cc(C)c(Oc2c(I)c(C)c(CC(N)C(=O)O)c(C)c2I)c(C)c1 (stereo unspecified) | -7.1 |
| CCc1cc(C)c(Oc2cc(C)c(CC(N)C(=O)O)c(C)c2I)c(C)c1I (stereo unspecified) | -7.6 |
| CCc1cc(C)c(Oc2c(I)c(C)c(CC(=O)O)c(C)c2I)c(C)c1I | -9.7 |
| CCc1c(I)c(C)c(Oc2cc(C)c(CC(N)C(=O)O)c(C)c2I)c(C)c1I (stereo unspecified) | -10 |
| CCc1cc(C)c(Oc2c(I)c(C)c(CC(N)C(=O)O)c(C)c2I)c(C)c1Cl (stereo unspecified) | -7.7 |
| CCc1c(C)c(C)c(Oc2c(I)c(C)c(CC(N)C(=O)O)c(C)c2I)c(C)c1C (stereo unspecified) | -6.6 |
| CCc1cc(C)c(Oc2c(I)c(C)c(CC(N)C(=O)O)c(C)c2I)c(C)c1C(C)CC (stereo unspecified) | -9 |
| CCc1c(I)c(C)c(Oc2c(I)c(C)c(CC(=O)O)c(C)c2I)c(C)c1I | -11.9 |
| CCc1c(I)c(C)c(Oc2c(C)c(C)c(CC(N)C(=O)O)c(C)c2C)c(C)c1I (stereo unspecified) | -7.7 |
| CCc1c(I)c(C)c(Oc2c(I)c(C)c(CCN)c(C)c2I)c(C)c1I | -9.7 |
| CCc1cc(C)c(Oc2c(I)c(C)c(CC(N)C(=O)O)c(C)c2I)c(C)c1I (stereo in doubt; 21) | -7 |
| CCc1c(Br)c(C)c(Oc2c(I)c(C)c(CC(N)C(=O)O)c(C)c2I)c(C)c1Br (stereo unspecified) | -9.2 |
| CCc1c(I)c(C)c(Oc2c(I)c(C)c(CCCC(=O)O)c(C)c2I)c(C)c1I | -11.3 |
| CCCc1c(CC)cc(C)c(Oc2c(I)c(C)c(CC(N)C(=O)O)c(C)c2I)c1C (stereo unspecified) | -7.6 |
| CCc1cc(C)c(Oc2c(I)c(C)c(CC(N)C(=O)O)c(C)c2I)c(C)c1C (stereo unspecified) | -7.4 |
| CCc1c(I)c(C)c(Oc2c(I)c(C)c(CC(N)C(=O)O)c(C)c2I)c(C)c1I (stereo in doubt; 26) | -8.7 |
| CCc1c(I)c(C)c(Oc2c(I)c(C)c(CCC(=O)O)c(C)c2I)c(C)c1I | -11.4 |
| CCc1cc(C)c(Oc2c(C)c(C)c(CC(N)C(=O)O)c(C)c2C)c(C)c1I (stereo unspecified) | -7.8 |
| CCc1cc(C)c(Oc2c(I)c(C)c(CC(N)C(=O)O)c(C)c2I)c(C)c1C(C)C (stereo unspecified) | -7.8 |
| CCc1c(I)c(C)c(Oc2c(I)c(C)c(C(=O)O)c(C)c2I)c(C)c1I | -11.1 |
| CCc1cc(C)c(Oc2c(I)c(C)c(CC(N)C(=O)O)c(C)c2I)c(C)c1Br (stereo unspecified) | -8.2 |
| CCc1c(I)c(C)c(Oc2c(I)c(C)c(CC(N)C(=O)O)c(C)c2I)c(C)c1I (stereo in doubt; 2) | -10.7 |
| CCc1cc(C)c(Oc2c(I)c(C)c(CC(N)C(=O)O)c(C)c2I)c(C)c1CC(C)C (stereo unspecified) | -8.4 |
| CCc1cc(C)c(Oc2c(I)c(C)c(CC(N)C(=O)O)c(C)c2I)c(C)c1I (stereo in doubt; 1) | -9.2 |
| CCc1cc(C)c(Oc2c(I)c(C)c(CC(N)C(=O)O)c(C)c2I)c(C)c1C(C)(C)C (stereo unspecified) | -8 |
| CCc1cc(C)c(Oc2cc(C)c(CC(N)C(=O)O)c(C)c2I)c(C)c1 (stereo unspecified) | -5.2 |
